# pIC50: −log10 of the molar value. Where two headings read alike, the source gives them in different places.
# System: A-673 cells
# Test: Cell viability, crystal violet staining
# Type: cell-based
# Settings: Homo sapiens; for IC50: A673, cell viability
# Procedure: To measure cell viability, cells were plated in 96-well plastic tissue culture plates at a density of 5×10^3 cells/well. Twenty-four hours after plating, cells were treated with various SMSMs. After 72 hours, the cell culture media were removed and plates were stained with […] of a solution containing 0.5% crystal violet and 25% methanol, rinsed with deionized water, dried overnight, and resuspended in […] citrate buffer (0.1 M sodium citrate in 50% ethanol) to assess plating efficiency. Intensity of crystal violet staining, assessed at 570 nm and quantified using a Vmax Kinetic Microplate Reader and Softmax software (Molecular Devices Corp., Menlo Park, Calif.), were directly proportional to cell number. Data were normalized to vehicle-treated cells and were presented as the mean±SE from representative experiments. SMSMs that are effective were determined for various cells lines.
# A-673 cell viability […], splicing (IC50) and brain AUC/Plasma AUC of SMSMs were determined. As shown in the tables below SMSMs had high CNS exposure.
# [1] = read-out: A-673 IC50 (nM) Cell viability
# [2] = read-out: A-673 IC50 (nM), Cell viability
SMILES,IC50 [1],IC50 [2],other results
"CN(c1ccc(-c2ccc(-c3ccnc(OC(F)F)c3)cc2O)nn1)[C@H]1C[C@]2(C)CC[C@](C)(C1)N2 [compound 185, 5-(2-(difluoromethoxy)pyridin-4-yl)-2-(6-(((1R,3s,5S)-1,5-dimethyl-8-azabicyclo[3.2.1]octan-3-yl)(methyl)amino)pyridazin-3-yl)phenol]",501 to 1000 nM,–,–
"COc1cc(-c2ccc(-c3ccc(N(C)[C@H]4C[C@]5(C)CC[C@](C)(C4)N5)nn3)c(O)c2)ccc1F [compound 210, 4-(6-(((1R,3s,5S)-1,5-dimethyl-8-azabicyclo[3.2.1]octan-3-yl)(methyl)amino)pyridazin-3-yl)-4′-fluoro-3′-methoxy-[1,1′-biphenyl]-3-ol]",251 to 500 nM,–,–
"CN(c1ccc(-c2ccc(-n3cnc(C#N)c3)cc2O)nn1)[C@H]1C[C@]2(C)CC[C@](C)(C1)N2 [compound 196, 1-(4-(6-(((1R,3s,5S)-1,5-dimethyl-8-azabicyclo[3.2.1]octan-3-yl)(methyl)amino)pyridazin-3-yl)-3-hydroxyphenyl)-1H-imidazole-4-carbonitrile]",251 to 500 nM,–,–
"CN(c1ccc(-c2cc3ccc(OCF)cc3cc2O)nn1)[C@@H]1C[C@H]2CC[C@@H](C1)N2 [compound 165, 3-(6-(((1R,3s,5S)-8-azabicyclo[3.2.1]octan-3-yl)(methyl)amino)pyridazin-3-yl)-7-(fluoromethoxy)naphthalen-2-ol]",10 to 100 nM,–,–
"[2H]C([2H])([2H])Oc1cc(-c2cc(O)c(-c3ccc(N(C)[C@H]4C[C@]5(C)CC[C@](C)(C4)N5)nn3)cc2F)cnn1 [compound 206, 2-(6-(((1R,3s,5S)-1,5-dimethyl-8-azabicyclo[3.2.1]octan-3-yl)(methyl)amino)pyridazin-3-yl)-4-fluoro-5-(6-(methoxy-d3)pyridazin-4-yl)phenol]",< 10 nM,–,–
"CN(c1ccc(-c2ccc(-c3cnn(C(F)F)c3)cc2O)nn1)[C@@H]1C[C@H]2CCC[C@@H](C1)N2 [compound 301, 2-(6-(((1R,3s,5S)-9-azabicyclo[3.3.1]nonan-3-yl)(methyl)amino)pyridazin-3-yl)-5-(1-(difluoromethyl)-1H-pyrazol-4-yl)phenol]",–,10 to 100 nM,–
"[2H]C([2H])([2H])c1ncc(-c2ccc(-c3ccc(N(C)[C@H]4C[C@]5(C)CC[C@](C)(C4)N5)nn3)c(O)c2)o1 [compound 303, 2-(6-(((1R,3s,5S)-1,5-dimethyl-8-azabicyclo[3.2.1]octan-3-yl)(methyl)amino)pyridazin-3-yl)-5-(2-(methyl-d3)oxazol-5-yl)phenol]",–,10 to 100 nM,–
"Cc1cc(-c2ccc(-c3ccc(N(C)[C@@H]4C[C@H]5CCC[C@@H](C4)N5)nn3)c(O)c2)cc(=O)n1C [compound 290, 4-(4-(6-(((1R,3s,5S)-9-azabicyclo[3.3.1]nonan-3-yl)(methyl)amino)pyridazin-3-yl)-3-hydroxyphenyl)-1,6-dimethylpyridin-2(1H)-one]",–,251 to 500 nM,–
"Cc1nnnn1-c1ccc(-c2ccc(N(C)[C@@H]3C[C@H]4CC[C@@H](C3)N4)nn2)c(O)c1 [compound 233, 2-(6-(((1R,3s,5S)-8-azabicyclo[3.2.1]octan-3-yl)(methyl)amino)pyridazin-3-yl)-5-(5-methyl-1H-tetrazol-1-yl)phenol]",–,> 1000 nM,–
"COc1ccc2cc(-c3ccc(N(C)[C@@H]4C[C@H]5CC[C@@H](C4)N5)nn3)c(O)cc2c1 [compound 163, 3-(6-(((1R,3s,5S)-8-azabicyclo[3.2.1]octan-3-yl)(methyl)amino)pyridazin-3-yl)-7-methoxynaphthalen-2-ol]",101 to 250 nM,–,–
"[2H]C([2H])([2H])Oc1cc(-c2cc(O)c(-c3ccc(N(C)[C@H]4C[C@]5(C)CCC[C@](C)(C4)N5)nn3)cc2F)cnn1 [compound 269, 2-(6-(((1R,3s,5S)-1,5-dimethyl-9-azabicyclo[3.3.1]nonan-3-yl)(methyl)amino)pyridazin-3-yl)-4-fluoro-5-(6-(methoxy-d3)pyridazin-4-yl)phenol]",–,< 10 nM,–
"CN(c1ccc(-c2cc3cc(C(=O)NC4CC4)oc3cc2O)nn1)[C@@H]1C[C@H]2CCC[C@@H](C1)N2 [compound 299, 5-(6-(((1R,3s,5S)-9-azabicyclo[3.3.1]nonan-3-yl)(methyl)amino)pyridazin-3-yl)-N-cyclopropyl-6-hydroxybenzofuran-2-carboxamide]",–,10 to 100 nM,–
"[2H]C([2H])([2H])n1cc(-c2ccc(-c3ccc(N(C)[C@@H]4C[C@H]5CCC[C@@H](C4)N5)nn3)c(O)c2)cn1 [compound 288, 2-(6-(((1R,3s,5S)-9-azabicyclo[3.3.1]nonan-3-yl)(methyl)amino)pyridazin-3-yl)-5-(1-(methyl-d3)-1H-pyrazol-4-yl)phenol]",–,10 to 100 nM,–
"CN(c1ccc(-c2ccc(-c3cc[nH]c(=O)c3)cc2O)nn1)[C@@H]1C[C@H]2CCC[C@@H](C1)N2 [compound 293, 4-(4-(6-(((1R,3s,5S)-9-azabicyclo[3.3.1]nonan-3-yl)(methyl)amino)pyridazin-3-yl)-3-hydroxyphenyl)pyridin-2(1H)-one]",–,10 to 100 nM,–
"[2H]C([2H])([2H])Oc1cc(-c2ccc(-c3ccc(N(C)[C@H]4C[C@]5(C)CC[C@](C)(C4)N5)nn3)c(O)c2)cnn1 [compound 205, 2-(6-(((1R,3s,5S)-1,5-dimethyl-8-azabicyclo[3.2.1]octan-3-yl)(methyl)amino)pyridazin-3-yl)-5-(6-(methoxy-d3)pyridazin-4-yl)phenol]",< 10 nM,–,–
"CNC(=O)c1cc2cc(O)c(-c3ccc(N(C)[C@@H]4C[C@H]5CCC[C@@H](C4)N5)nn3)cc2o1 [compound 294, 6-(6-(((1R,3s,5S)-9-azabicyclo[3.3.1]nonan-3-yl)(methyl)amino)pyridazin-3-yl)-5-hydroxy-N-methylbenzofuran-2-carboxamide]",–,501 to 1000 nM,–
"CN(c1ccc(-c2ccc(-c3cc(C#N)n(C)c3)cc2O)nn1)[C@H]1C[C@]2(C)CC[C@](C)(C1)N2 [compound 195, 4-(4-(6-(((1R,3s,5S)-1,5-dimethyl-8-azabicyclo[3.2.1]octan-3-yl)(methyl)amino)pyridazin-3-yl)-3-hydroxyphenyl)-1-methyl-1H-pyrrole-2-carbonitrile]",501 to 1000 nM,–,–
"Cc1ccc(-c2ccc(-c3ccc(N(C)[C@@H]4C[C@H]5CC[C@@H](C4)N5)nn3)c(O)c2)cn1 [compound 236, 2-(6-(((1R,3s,5S)-8-azabicyclo[3.2.1]octan-3-yl)(methyl)amino)pyridazin-3-yl)-5-(6-methylpyridin-3-yl)phenol]",–,101 to 250 nM,–
"CN(c1ccc(-c2ccc(-c3cn[nH]c3)cc2O)nn1)[C@@H]1C[C@]2(C)CC[C@](C)(C1)N2 [compound 150, 2-(6-(((1R,3r,5S)-1,5-dimethyl-8-azabicyclo[3.2.1]octan-3-yl)(methyl)amino)pyridazin-3-yl)-5-(1H-pyrazol-4-yl)phenol]",> 1000 nM,–,–
"CN(c1ccc(-c2ccc(-c3cc(=O)n(C)cn3)cc2O)nn1)[C@@H]1C[C@H]2CCC[C@@H](C1)N2 [compound 300, 6-(4-(6-(((2R,3s,5S)-9-azabicyclo[3.3.1]nonan-3-yl)(methyl)amino)pyridazin-3-yl)-3-hydroxyphenyl)-3-methylpyrimidin-4(3H)-one]",–,10 to 100 nM,–
"CN(c1ccc(-c2cc(F)c(-c3ccn(CF)c(=O)c3)cc2O)nn1)[C@H]1C[C@]2(C)CC[C@](C)(C1)N2 [compound 193, 4-(4-(6-(((1R,3s,5S)-1,5-dimethyl-8-azabicyclo[3.2.1]octan-3-yl)(methyl)amino)pyridazin-3-yl)-2-fluoro-5-hydroxyphenyl)-1-(fluoromethyl)pyridin-2(1H)-one]",< 10 nM,–,"pIC50 (A673, read-out: A-673 cell viability (IC50)): > 8.52"
